This note sets out measurements from PubChem BioAssay (NCI).

Each structure is given as a SMILES string. Several values for one entry are separate records, joined by “and”; a condition that tells them apart may be missing. Equal entries are not always repeated.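 Results reflect a 48-hour exposure of cells in 96-well plates to compound at five concentrations. GI50: concentration for 50% inhibition of growth. The concentration for full growth arrest is given as TGI.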

Common to all, as to assay: DTP human tumour cell line panel, 48 h
The subject of assay [1] is SK-MEL-2 melanoma.
Assay [2] deals with COLO 205 colon.
Assay [3] deals with EKVX NSCLC.
Assay [4] relates to HCT-116 colon.
Assay [5] relates to OVCAR-8 ovarian.
The test system of assay [6] is MOLT-4 leukemia.
The subject of assay [7] is SNB-75 CNS.
In assay [8] the test system is SW-620 colon.
In assay [9] the test system is OVCAR-4 ovarian.
Assay [10] concerns OVCAR-3 ovarian.

The term GI50 denotes the concentration that inhibits growth by half. As a reminder, the TGI is the concentration giving total growth inhibition. Read a low TGI as greater sensitivity of the cells. With `COc1cccc(-c2cc(=O)c3cc(N4CCN(C)CC4)ccc3[nH]2)c1`, the GI50 was 3.16 µM in assay [1]; 2.02 µM in assay [2]; 2.96 µM in [3]; 0.92 µM in [4]; 1.78 µM in assay [5]; 2.06 µM in assay [6]. Besides, the values for the GI50 in assay [7], in assay [8] and in assay [9] were 0.612 µM, 0.755 µM and 10.6 µM, respectively. The TGI in [1] is more than 100 µM; in assay [2] it was 3.55 µM and 10.7 µM; in assay [4], more than 100 µM; in assay [5] it was 4.99 µM and 6.39 µM; in assay [6] it was 7.21 µM; in assay [7] it was 65.1 µM. Moreover, the concentration for total growth inhibition (TGI) in assay [8] and in assay [9] was more than 100 µM in each case.

Regarding `N#Cc1ccccc1Sc1ccccc1N`, the TGI in assay [1], in assay [2], in assay [3], in [5], in [6] and in [8] was more than 100 µM throughout. Moreover, the TGI in assay [9] was more than 100 µM.

As to `COc1ccc(-c2cnc(-c3ccncc3-c3cccc(OC)c3)o2)cc1`, the GI50 in assay [1] is 0.0397 µM; in [2], 0.0375 µM; in [3], 1.04 µM; in assay [4], 0.0375 µM; in assay [5], 0.0484 µM; in assay [6], 0.0617 µM. Also, the GI50 in [7] was 0.0329 µM; in assay [8] it was 0.0383 µM; in [9], 0.677 µM. In addition, the TGI in [1] amounted to 15.2 µM; in [2], 1.23 µM; in assay [3] it was 25.1 µM; in assay [4], 11.8 µM; in [5] it was 15.3 µM; in assay [6] it was 17.2 µM. Further, the values for the TGI in assay [7], in assay [8] and in [9] were 23.2 µM, 19.3 µM and 29.2 µM, respectively.

Consider `Cc1nc2sccn2c1C(=O)NNC(N)=S`, for which the TGI in [1], in assay [2], in [3], in assay [4], in [5] and in assay [6] was more than 100 µM throughout. Moreover, the TGI in assay [10] and in assay [8] was more than 100 µM throughout.

On to `C#Cc1cccc(NC(=O)/C=C\C(=O)O)c1`, for which the TGI in assay [1], in assay [2], in assay [3], in assay [4], in [5] and in assay [6] was more than 100 µM each time. Also, the TGI in [7], in assay [8] and in assay [9] was more than 100 µM throughout.

For `O=c1[nH]c2ccccc2cc1-c1nnc(Cc2ccccc2)o1`, the GI50 was 3.55 µM in [2]; 1.41 µM in [4]; 2.67 µM in [6]; 3.25 µM in assay [10]; 6.07 µM in [7]; 1.87 µM in [8]. The GI50 in assay [9] was 4.23 µM. Moreover, the TGI is 13.2 µM in [2]; 3.1 µM in assay [4]; 9.22 µM in [6]; 11 µM in assay [10]; 21.4 µM in assay [7]; 4.16 µM in assay [8]. Moreover, the TGI in [9] turned out to be 18.3 µM.

Regarding `OCc1ccc(-c2ccc(-c3ccc(CO)o3)o2)o1`, the GI50 in [1] was 38.8 µM; in assay [2], 18.6 µM; in assay [4], more than 88.9 µM; in [5], more than 100 µM; in assay [6], more than 100 µM; in assay [10], more than 84.6 µM. The GI50 was 23.2 µM in assay [7], more than 100 µM in assay [8] and more than 41.3 µM in assay [9]. For the same molecule, the TGI in assay [1] is 97.1 µM; in assay [2] it was 48.2 µM; in [4], more than 100 µM; in [5], more than 100 µM; in [6] it was more than 100 µM; in assay [10] it was more than 100 µM. The TGI is 79.7 µM in [7], more than 100 µM in [8] and more than 100 µM in assay [9].

As to `CN(C)C1C(=O)C(C(N)=O)=C(O)C2(O)C(=O)C3=C(O)c4c(O)cccc4C(C)(O)C3CC12.[Cl][Sb]([Cl])[Cl]` (stereo unspecified), the GI50 in assay [1] is 2.99 µM; in [2], 2.94 µM; in [3], 2.96 µM; in [4] it was 3.33 µM; in [5], 3.37 µM; in assay [6], 3.91 µM. In addition, the GI50 is 3.62 µM in assay [10], 4.01 µM in [8] and 4.45 µM in assay [9]. The TGI in [1] was found to be 8.04 µM; in assay [2], 9.17 µM; in [3] it was 8.01 µM; in assay [4] it was 12.2 µM; in assay [5], 13.1 µM; in assay [6] it was 11 µM. The total growth inhibition concentration (TGI) in assay [10] was 12.4 µM; in assay [8] it was 16.5 µM; in assay [9], 19 µM.

Take `COc1ccc(N(CC(=O)O)N=O)cc1`: the TGI in [1], in [2], in [3], in [4], in assay [5] and in assay [6] was more than 100 µM in each case. The TGI in [10], in [8] and in assay [9] was more than 100 µM in each case.

On to `COC(=O)c1ccc(NC(N)=NCCC(C)(C)c2ccc(C(F)(F)F)cc2)nc1`, for which the GI50 is 3.22 µM in assay [1]; 1.7 µM in assay [2]; 1.6 µM in [4]; 2.04 µM in [5]; 1.88 µM in assay [6]; 1.78 µM in assay [10]. Further, the GI50 is 5.51 µM in assay [7], 2.03 µM in assay [8] and 1.71 µM in assay [9]. The TGI worked out at 10.5 µM in assay [1]; 3.41 µM in [2]; 3.3 µM in assay [4]; 4.63 µM in assay [5]; 7.33 µM in assay [6]; 4.08 µM in [10]. The values for the TGI in assay [7], in assay [8] and in assay [9] were 19.8 µM, 4.19 µM and 9.18 µM, respectively.
